Patent US5981586A, “Methods for treating proliferative and inflammatory skin diseases” (priority 1998, dated 1999)
Entries after “also recorded” stand apart in the source; their conditions may differ. Like-named read-outs stand apart in the source and are kept apart here.

Legend:
[1] = test system: PPARγ; conditions: cited from earlier work
[2] = test system: human keratinocytes; test: Proliferation of human keratinocytes by PMS/MTS (CellTiter 96 AQueous) assay; type: cell-based
Excerpt: Inhibition of proliferating human keratinocytes in culture have been utilized as a system for screening and identifying potential therapeutic agents such as vitamin D derivatives (Kitano et at., 1991) and retinoids (West et at., 1992), for the treatment of inflammatory, proliferative skin diseases (e.g., psoriasis vulgaris, acne vulgaris, hidradenitis suppurativa).
Human keratinocytes were obtained from Clonetics (San Diego, California) and subcultured into a proprietary (Clonetics) medium optimized for cell growth and maintenance. Proliferation of keratinocytes was determined using MTS, 3-(4,5-dimethylthiazol-2-yl)-5-(3-carboxymethoxyphenyl)-2-(4-sulfophen 1)-2H-tetrazolium (PMS/MTS) as described in the CellTiter 96 AQueous Non-Radioactive Cell Proliferation Assay (Promega Inc.). Only viable cells reduce MTS to the soluble formazan, and viable cell numbers correlate with optical density (Cory et at., 1991).
Cells were seeded at 2 to 4×10^4 cells/ml of growth medium in 24 well microtiter plates. Twenty-four hours post-plating cells were treated with vehicle alone (0.1% DMSO) or various concentrations of 15-deoxy-PG J2 was added to each well (quadruplicate samples per concentration) for an additional 4 days. At each time point 100 ul of the PMS/MTS assay mix is added and absorbance at 490 nm was recorded four hours later with a microplate spectrophotometer (BioTek Instrument Co).

[3] = test system: PPARγ; conditions: cited from earlier work; remark: listed apart in the source
[4] = test system: human keratinocytes; test: Proliferation of adult human keratinocytes in culture (neutral red dye assay, 4 days); type: cell-based
Experimental: The use of proliferating human keratinocytes in culture as a test system for determining the utility of a compound for treating hyperproliferative and inflammatory disorders of the skin is well documented (Kitanot et at., Euro. J Clin. Investig. 21:53-58 (1991) and West, et at., J. Investigative Derm. 99(1):95-100 (1992).)
Cell number was assessed at time zero (before treatment) and at the end of the treatment period by the neutral red dye assay. See Kitano, et at., Euro. J. Clin. Investig. 21:53-58 (1991) and West, et at., J. Investigative Derm. 99(1):95-100 (1992). Each condition was performed in 12 replicates, on keratinocytes from three subjects and the results were combined from the three subjects. […] The coordinate plots the cell growth of the keratinocytes as the percentage of controls.

## CCCCCC=CC=C1C(=O)C=CC1CC=CCCCC(=O)O (stereo not shown) [15-deoxy-PG J2, 15-deoxy-A-12,14-prostaglandin J2]
[1]
  activation of PPARγ (in words): activate PPARγ to varying degrees
[2]; Homo sapiens, Keratinocyte, 96 h, 2 uM, 4 days
  inhibition at 2 µM: 22%
[2]; Homo sapiens, Keratinocyte, 96 h, 4 uM, 4 days
  inhibition at 4 µM: 51%
[2]; Homo sapiens, Keratinocyte, 96 h, 8 uM, 4 days
  inhibition at 8 µM: 76%
[2]; Homo sapiens, Keratinocyte, 96 h, 20 uM, 4 days
  inhibition at 20 µM: 100%
[2]; Keratinocyte, 96 h, human keratinocytes, 4 days treatment, read-out: concentration for half-maximal inhibition of growth (IC50)
  IC50: ~4 µM
[2]; concentration not printed in the line (first line of Table 1), 4 days
  % inhibition of proliferation of human keratinocytes: 5%
[2]; cultured human keratinocytes, 4 days
  inhibition of proliferation of human keratinocytes (in words): inhibits the proliferation of human keratinocytes in culture; also recorded: dose-dependent inhibition of proliferation

## CC(C)(Oc1ccc(CCNC(=O)c2ccc(Cl)cc2)cc1)C(=O)O [bezofibrate]
[3]
  activation of PPARγ (in words): known to activate PPARγ

## CC(C)(Oc1ccc(C2CC2(Cl)Cl)cc1)C(=O)O (stereo not shown) [ciprofibrate]
[3]
  activation of PPARγ (in words): known to activate PPARγ

## CCOC(=O)C(C)(C)Oc1ccc(Cl)cc1 [clofibrate]
[3]
  activation of PPARγ (in words): known to activate PPARγ

## Cc1c(C)c2c(c(C)c1O)CCC(C)(COc1ccc(CC3SC(=O)NC3=O)cc1)O2 (stereo not shown) [troglitazone]
[4]; 0.1, 1.0 and 10 μM, 4 days, compared with vehicle 0.1% DMSO
  inhibition of keratinocyte proliferation (in words): dose-dependent inhibition of keratinocyte proliferation; also recorded: dose-dependent and saturable; also recorded: dose response inhibition of cell growth
[4]; Homo sapiens, Keratinocyte, 96 h, read-out: IC50, antiproliferative effect in human keratinocytes
  IC50: 2.1 µM
